According to paper PMC6457909 (Science (New York, N.Y.), 2019):

Columns and labels:
[1] = tested on: panel of pharmacologically relevant receptors, ion channels, and transporters; experiment: In vitro selectivity profiling; format: binding; conditions: 10 µM
[2] = tested on: H1N1 A/California/07/2009 (H1/Cal); format: cell-based, influenza A virus; conditions: read-out: virus neutralization EC50 for H1/Cal
H5 HA compared to H1 HA = format: binding, influenza A virus
[3] = tested on: influenza A group 1 viruses; format: cell-based, influenza A virus
Kinetic solubility = conditions: versus earlier compounds
H1N1 A/PR/8/1934 virus [4] = experiment: Mouse influenza challenge, lethal; format: in vivo; conditions: for survival at day 21: lethal challenge 25x MLD
In vivo pharmacokinetics = experiment: In vivo pharmacokinetics; design: species or system mouse; conditions: mice
[5] = tested on: H1N1 A/New Caledonia/20/1999 (H1/NCa); format: cell-based, influenza A virus; conditions: read-out: virus neutralization EC50 for H1/NCa
MDCK cells = experiment: Cell toxicity assay
[6] = tested on: H1N1 A/PR/8/1934 virus in human bronchial epithelial cells (HBEC); experiment: Viral neutralization assay in HBEC cultures; format: cell-based; conditions: 96 hours post-infection
H1N1 A/PR/8/1934 virus [7] = experiment: Mouse influenza challenge, sublethal; format: in vivo; conditions: for survival: sublethal challenge (MLD90)
[8] = Metabolic stability in liver microsomes; conditions: human liver microsomes, versus earlier compounds
[9] = Metabolic stability in liver microsomes; conditions: murine liver microsomes, versus earlier compounds
[10] = tested on: H1N1 A/Brisbane/59/2007 HA; format: biochemical, influenza A virus; conditions: pH 5.25

Compound: CC(=O)Nc1ccc2oc(-c3ccnc(C(=O)N4CCN([C@H](c5ccccc5)c5nnn(C)n5)CC4)c3)nc2c1 [JNJ4796]
- inhibition of off-targets [1]: does not substantially inhibit any of these potential off-targets
- EC50 [2]: 66 nM
- decrease of binding affinity to H5 HA compared to H1 HA (H5 HA compared to H1 HA): ~ 25 fold
- breadth of virus neutralization [3]: heterosubtypic group 1 HA binding and virus neutralization breadth
- aqueous solubility (in words) (Kinetic solubility): increased
- survival at day 21 (H1N1 A/PR/8/1934 virus [4]; 10 mg/kg twice daily oral): 100%
- survival at day 21 (H1N1 A/PR/8/1934 virus [4]; 50 mg/kg twice daily oral): 100%
- morbidity (animal weight loss) (H1N1 A/PR/8/1934 virus [4]; lethal challenge, 50 and 10 mg/kg): only partly alleviated morbidity
- half-life (t½) (In vivo pharmacokinetics; after oral administration): 2.4 h
- overall bioavailability (In vivo pharmacokinetics; oral): 30.0%
- plasma concentration (Cmax) (In vivo pharmacokinetics; oral administration at 10 mg/kg): 1152 ng/mL
- EC50 [5]: 38 nM
- cytotoxicity (MDCK cells): without cytotoxicity
- viral titers [6]: dramatically reduced the viral titers
- survival (H1N1 A/PR/8/1934 virus [7]; 5 mg/kg twice daily oral): 100%
- survival (H1N1 A/PR/8/1934 virus [7]; 15 mg/kg twice daily oral): 100%
- weight loss (H1N1 A/PR/8/1934 virus [7]; sublethal challenge, 15 and 5 mg/kg twice daily): only moderate weight loss effects
- intrinsic clearance (in words) [8]: significantly reduced
- intrinsic clearance (in words) [9]: significantly reduced
- inhibition of low pH-induced HA conformational change [10]: dose-dependently prevents pH-induced transition of HA to the post-fusion conformation
